Test results reported in US20150030615A1, “BIOMARKERS FOR CANCER STEM CELLS AND RELATED METHODS OF USE” (VERASTEM, INC., priority 2012, published 2015).
“Also recorded” adds a separate entry of the source.

System: tumorspheres of SUM159 cells
Experiment: gene expression in sequentially passaged tumorspheres treated with chemotherapeutic agents
Type: cell-based, human
Details: paclitaxel-treated SUM159 tumorspheres; 11 CSC-associated genes; percentage change normalized to primary SUM159 tumorspheres (FIG. 14)

CC(=O)O[C@H]1C(=O)[C@@]2(C)[C@H]([C@H](OC(=O)c3ccccc3)[C@]3(O)C[C@H](OC(=O)[C@H](O)[C@@H](NC(=O)c4ccccc4)c4ccccc4)C(C)=C1C3(C)C)[C@]1(OC(C)=O)CO[C@@H]1C[C@@H]2O [paclitaxel]
expression of upregulated cancer stem cell associated genes: enhancement of the upregulation; also recorded: enhanced further
